Assay results: patent US7262197B2, “Phospholipase C inhibitors for use in treating inflammatory disorders” (Janssen Pharmaceutica, N.V, priority 2003, dated 2007)

Target: T1, human PLC-β2 (Homo sapiens, UniProt Q00722)
T1 construct: made in house; host or cells: Sf9 cells (Spodoptera frugiperda), recombinant baculovirus
Assay: PLC assay using FlashPlates (immobilized [3H]PIP2 substrate, 96-well)
Assay type: biochemical
Settings: for IC50: hydrolysis of immobilized [3H]PIP2, purified recombinant human PLC-β2 or cytosolic human PLC-β2; for inhibition at up to 10 µM: printed in brackets beside IC50 >10 μM, test concentration not stated
Source text: The hydrolysis of phosphatidylinositol-4,5-bisphosphate (PIP2) by a specific phospholipase C-β2 (PLC-β2) produces two intracellular messengers, diacylglycerol (DAG) and inositol 1,4,5-trisphosphate (IP3), which mediate the activation of protein kinase C and intracellular Ca^2+ release. A conventional organic solvent extraction method is widely used for PLC assays to isolate IP3 from the substrate PIP2. The conventional PLC-β2 assay, however is terminated by addition of acidified organic solvents and subsequent extraction and phase separation. […] Accordingly, a preferred method to test the compounds of the present invention, was developed utilizing a 96-well plate assay for PLC-β2 using immobilized radiolabeled substrate to quantitatively measure the reduction in the substrate level without a need for organic solvent extraction. The automated PLC-β2 assay described herein provides a convenient method for quantitative measurement of phospholipase C activities in a high throughput fashion.
Ninety-six well Phospholipid FlashPlates were coated with 0.2 mL of 50 mM Tris/HCl (pH 7.4), 0.01% Ac-BSA and 50,000 cpm of ^[3H]PIP2 (phosphatidylinositol-4,5-bisphosphate) at 4° C. for 72 h. The wells were aspirated and washed twice with PBS. The reactions were conducted directly in the wells in PLC reaction buffer containing 50 mM Tris/HCl (pH 7.2), 2.75 mM EDTA (pH 7.3), 80 mM KCl, 10 mM LiCl, 0.04% DOC and 2 mM CaCl2 in the absence or presence of the purified recombinant human PLC-β2 (prepared as described hereafter) or cytosolic human PLC-β2 from […]. Reduction of radioactivity was monitored by a Packard TopCount instrument (Packard Instrument Company, Conn., USA).
Suspension cultures of Sf9 cells were maintained in a spinner flask at 27° C. and stirred at 90 rpm. The cells were grown in Grace's media supplemented with 10% (v/v) fetal bovine serum, 3.3 g/l yeastolate, 3.3 g/l lactalbumin hydrosylate, glutamine (6.4 mM final), 50 µg/ml gentamicin, and 50 μg/ml kanamycin. Suspension of Sf9 cells (1.0×10^6 cells/ml) were infected with 5 pfu/cell of recombinant baculovirus encoding PLC-β2 and incubated at 27° C. for 72 h. The cells were collected by centrifugation (500×g, 7 min, 4° C.) and disrupted by hypotonic lysis buffer containing 20 mM Tris/HCl, pH 7.4, 5 mM MgCl2, 2 mM EGTA, 200 βM PMSF, 200 βM benzamidine and 1 βM pepstatin A. The lysate was sonicated on ice and the nuclei and unbroken cells removed by centrifugation (500×g, 5 min, 4° C.). The supernatant was recovered and clarified by centrifugation (34,000 rpm, 60 min, 4° C.). The supernatant was used as a crude cytosolic fraction (Paterson, A., Boyer, J. L., Watts, V. J., Morris, A. J., Price, E. M., Harden, T. K. (1995) Concentration of enzyme-dependent activation of PLC β1 and PLC β2 by Gα11 and βγ subunits. Cellular Signalling 7, 709-720).
Crude cytosol prepared from Sf9 cells expressing PLC-β2 was purified initially by chromatography on a 10 ml column of Q-Sepharose FF, equilibrated in buffer A (25 mM HEPES, pH 7.2, 2 mM DTT, 2 mM EDTA, 2 mM EGTA, 200 μM PMSF, 200 μM benzamidine, 1 μM pepstatin A containing 10 mM NaCl). The column was washed with 20 ml of equilibration buffer and eluted with a 200-ml gradient of 110-410 mM NaCl in buffer A. The fractions containing PLC activity were pooled and diluted with buffer A. The diluted enzyme was applied to a 4 ml column of heparin-SepharoseCL-6B equilibrated in buffer A and the column washed with 70 ml of buffer A. The column was eluted with 80 ml of gradient of 0-1.0 M NaCl in buffer A, the column eluate collected in 3 ml fractions. […]

T1 sequence (Q00722 whole entry): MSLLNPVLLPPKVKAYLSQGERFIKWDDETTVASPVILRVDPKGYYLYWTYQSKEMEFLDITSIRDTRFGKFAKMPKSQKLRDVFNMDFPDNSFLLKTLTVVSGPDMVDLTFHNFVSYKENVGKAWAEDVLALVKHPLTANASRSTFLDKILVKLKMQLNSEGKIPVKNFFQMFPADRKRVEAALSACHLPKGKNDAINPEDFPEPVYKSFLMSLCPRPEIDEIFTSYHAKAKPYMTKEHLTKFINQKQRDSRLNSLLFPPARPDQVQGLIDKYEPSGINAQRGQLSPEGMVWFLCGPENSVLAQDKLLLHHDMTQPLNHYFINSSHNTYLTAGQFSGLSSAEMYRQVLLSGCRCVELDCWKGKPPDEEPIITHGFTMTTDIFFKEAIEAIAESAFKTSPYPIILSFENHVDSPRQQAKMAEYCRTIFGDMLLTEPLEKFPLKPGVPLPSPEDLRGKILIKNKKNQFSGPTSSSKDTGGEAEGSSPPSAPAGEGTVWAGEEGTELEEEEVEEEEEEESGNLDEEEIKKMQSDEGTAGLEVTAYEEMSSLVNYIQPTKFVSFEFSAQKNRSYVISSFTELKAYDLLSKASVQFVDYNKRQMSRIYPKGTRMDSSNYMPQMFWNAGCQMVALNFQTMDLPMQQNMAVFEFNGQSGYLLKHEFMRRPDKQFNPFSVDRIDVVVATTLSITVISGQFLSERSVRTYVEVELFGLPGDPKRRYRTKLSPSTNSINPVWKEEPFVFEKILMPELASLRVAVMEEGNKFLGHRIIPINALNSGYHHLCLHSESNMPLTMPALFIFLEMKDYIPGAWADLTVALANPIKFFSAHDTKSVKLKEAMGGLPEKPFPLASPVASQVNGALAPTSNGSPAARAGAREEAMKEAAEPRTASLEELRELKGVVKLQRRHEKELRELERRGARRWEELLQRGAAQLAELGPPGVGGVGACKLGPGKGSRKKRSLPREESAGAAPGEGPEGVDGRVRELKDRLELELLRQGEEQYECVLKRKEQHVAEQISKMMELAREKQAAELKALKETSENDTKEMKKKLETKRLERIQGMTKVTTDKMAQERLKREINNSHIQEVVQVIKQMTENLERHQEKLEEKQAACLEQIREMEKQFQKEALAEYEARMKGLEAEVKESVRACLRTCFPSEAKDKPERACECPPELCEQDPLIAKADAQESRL

| IC50 [µM] | inhibition at up to 10 µM [%] | SMILES |
| --- | --- | --- |
| 21.6 | – | O=C(Nc1cc(C(=O)N2CCNCC2)ccc1N1CCN(C(c2ccccc2)c2ccccc2)CC1)c1ccco1 [Cpd 3, N-[2-[4-(diphenylmethyl)-1-piperazinyl]-5-(1-piperazinylcarbonyl)phenyl]-2-furancarboxamide] |
| 10.8 | – | Cc1ccc(S(=O)(=O)Nc2cc(C(=O)N3CCNCC3)ccc2N2CCN(C(c3ccccc3)c3ccccc3)CC2)cc1 [Cpd 5, N-[2-[4-(diphenylmethyl)-1-piperazinyl]-5-(1-piperazinylcarbonyl)phenyl]-4-methyl-benzenesulfonamide] |
| 9.8 | – | CS(=O)(=O)Nc1cc(C(=O)N2CCNCC2)ccc1N1CCN(C(c2ccccc2)c2ccccc2)CC1 [Cpd 8, N-[2-[4-(diphenylmethyl)-1-piperazinyl]-5-(1-piperazinylcarbonyl)phenyl]-methanesulfonamide] |
| > 10 | 47 | O=C(Nc1ccccc1)Nc1cc(CO)ccc1N1CCN(C(c2ccc(F)cc2)c2ccc(F)cc2)CC1 [Cpd 10, N-[2-[4-[bis(4-fluorophenyl)methyl]-1-piperazinyl]-5-(hydroxymethyl)phenyl]-N′-phenyl-urea] |
| > 10 | – | COC(=O)c1ccc(N2CCN(C(c3ccc(F)cc3)c3ccc(F)cc3)CC2)c(NC(=O)Nc2ccccc2)c1 [Cpd 11, 4-[4-[bis(4-fluorophenyl)methyl]-1-piperazinyl]-3-[[(phenylamino)carbonyl]amino]-benzoic acid methyl ester] |
| > 25 | – | CCCCS(=O)(=O)Nc1cc(C(=O)N2CCNCC2)ccc1N1CCN(C(c2ccccc2)c2ccccc2)CC1 [Cpd 7, N-[2-[4-(diphenylmethyl)-1-piperazinyl]-5-(1-piperazinylcarbonyl)phenyl]-1-butanesulfonamide] |
| 17.4 | – | Cc1oc(-c2ccc(Cl)cc2)cc1C(=O)Nc1cc(C(=O)N2CCNCC2)ccc1N1CCN(C(c2ccccc2)c2ccccc2)CC1 [Cpd 2, 5-(4-chlorophenyl)-N-[2-[4-(diphenylmethyl)-1-piperazinyl]-5-(1-piperazinylcarbonyl)phenyl]-2-methyl-3-furancarboxamide] |
| > 10 | 60 | CS(=O)(=O)c1ccc(N2CCN(C(c3ccccc3)c3ccccc3)CC2)c(NC(=O)Nc2ccccc2)c1 [Cpd 9, N-[2-[4-(diphenylmethyl)-1-piperazinyl]-5-(methylsulfonyl)phenyl]-N′-phenyl-urea] |
| 12.6 | – | Cc1ccc(C(=O)Nc2cc(C(=O)N3CCNCC3)ccc2N2CCN(C(c3ccccc3)c3ccccc3)CC2)cc1 [Cpd 1, N-[2-[4-(diphenylmethyl)-1-piperazinyl]-5-(1-piperazinylcarbonyl)phenyl]-4-methyl-benzamide] |
| > 25 | – | CCC(=O)Nc1cc(C(=O)N2CCNCC2)ccc1N1CCN(C(c2ccccc2)c2ccccc2)CC1 [Cpd 4, N-[2-[4-(diphenylmethyl)-1-piperazinyl]-5-(1-piperazinylcarbonyl)phenyl]-propanamide] |
| 8.7 | – | O=C(c1ccc(N2CCN(C(c3ccccc3)c3ccccc3)CC2)c(NS(=O)(=O)c2ccc(Cl)cc2)c1)N1CCNCC1 [Cpd 6, 4-chloro-N-[2-[4-(diphenylmethyl)-1-piperazinyl]-5-(1-piperazinylcarbonyl)phenyl]-benzenesulfonamide] |
